Measured values taken from ChEMBL document CHEMBL4354877, “MymA Bioactivated Thioalkylbenzoxazole Prodrug Family Active against Mycobacterium tuberculosis” (J Med Chem, 2020).
Values after ≈ are worked out from the molar mass of the structure shown. Active and inactive are the calls of the source. No cut-off for these calls is given here.

Experiments:
[1] = Intrinsic clearance in mouse liver microsomes at 0.5 uM incubated for 45 mins in presence of NADPH by LC-MS/MS analysis; assay type: ADME, Microsome; details: 0.75 h
[2] = Intrinsic clearance in human liver microsomes at 0.5 uM incubated for 45 mins in presence of NADPH by LC-MS/MS analysis; assay type: ADME, Microsome; details: 0.75 h
[3] = test system: Mycobacterium tuberculosis; experiment: Antimycobacterial activity against Mycobacterium tuberculosis H37Rv intracellular forms infected in human THP1 cells assessed as inhibition of microbial growth incubated for 5 days by luciferase reporter gene assay; assay type: functional; details: THP-1, 120 h
[4] = test system: Mycobacterium tuberculosis; experiment: Antimycobacterial activity against Mycobacterium tuberculosis extracellular forms assessed as inhibition of microbial growth; assay type: functional
[5] = Kinetic aqueous solubility in pH 7.4 PBS incubated for 1 hr by CLND assay; assay type: physicochemical; details: read-out: Kinetic_solubility
[6] = Permeability at pH 7.4 incubated for 4 hrs by PAMPA method; assay type: ADME; details: read-out: permeability
HepG2 = experiment: Cytotoxicity in human HepG2 cells assessed as reduction in cell viability incubated for 48 hrs by Cell-titer Glo kit based assay; details: HepG2, 48 h
[7] = Solubility in pH 6.5 FaSSIF incubated for 4 hrs by HPLC-UV based assay; assay type: physicochemical
[8] = Stability in human liver microsomes assessed as GSH-conjugates formation at 25 uM incubated for 60 mins in presence of NADPH and GSH by LC-MS/MS analysis; assay type: ADME, Microsome; details: 1 h
Cytochrome P450 3A4 [9] = target: T1, Cytochrome P450 3A4 (Homo sapiens, UniProt P08684); experiment: Inhibition of CYP3A4 (unknown origin) in presence of cofactor; assay type: ADME
[10] = test system: Mycobacterium tuberculosis; experiment: Antimycobacterial activity against Mycobacterium tuberculosis H37Rv infected in C57BL/6 mouse model of acute infection assessed as reduction in mycobacterial load in lung at 200 mg/kg dosed once per day for 8 days co-dosed with 50 mg/kg/day CYP inhibitor ABT; assay type: functional, organism-based
[11] = test system: Mycobacterium tuberculosis; experiment: Antimycobacterial activity against Mycobacterium tuberculosis H37Rv assessed as inhibition of microbial growth incubated for 6 days by alamar blue resazurin assay; assay type: functional; details: 144 h
Hepatocyte = experiment: Cytotoxicity in human primary hepatocytes assessed as reduction in cell viability up to 100 uM incubated for 72 hrs by MTT assay; assay type: cell-based
THP-1 = experiment: Cytotoxicity in human THP1 cells assessed as reduction in cell viability incubated for 5 days hrs by ATPLite assay; assay type: cell-based; details: THP-1, 120 h
Cytochrome P450 3A4 [12] = target: T1, Cytochrome P450 3A4; experiment: Inhibition of CYP3A4 (unknown origin) in absence of cofactor; assay type: ADME

T1 sequence (P08684 whole entry): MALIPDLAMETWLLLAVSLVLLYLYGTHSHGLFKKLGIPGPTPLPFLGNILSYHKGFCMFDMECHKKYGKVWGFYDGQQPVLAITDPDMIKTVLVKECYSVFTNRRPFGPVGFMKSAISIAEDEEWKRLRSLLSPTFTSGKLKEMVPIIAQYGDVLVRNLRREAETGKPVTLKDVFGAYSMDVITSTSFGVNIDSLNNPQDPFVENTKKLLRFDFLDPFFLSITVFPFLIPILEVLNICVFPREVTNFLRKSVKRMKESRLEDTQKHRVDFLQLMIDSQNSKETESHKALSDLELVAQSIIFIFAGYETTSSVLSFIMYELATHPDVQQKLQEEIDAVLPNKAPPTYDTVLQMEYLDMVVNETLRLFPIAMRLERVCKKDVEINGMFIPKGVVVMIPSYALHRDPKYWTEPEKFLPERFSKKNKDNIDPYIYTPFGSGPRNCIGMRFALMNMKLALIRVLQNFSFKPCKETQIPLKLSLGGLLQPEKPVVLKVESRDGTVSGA

SMILES	CLH [1] [mL/min/g]	CLH [2] [mL/min/g]	IC90 [3] [µM]	other results
O=C(CCSc1nc2cc(Cl)ccc2o1)N1CCS(=O)(=O)CC1	2.3	0.4	> 50	
O=C(CCCSc1nc2cc(Cl)ccc2o1)N1CCCC1	124.8	3.4	2.3	
CC1CCN(C(=O)CCSc2nc3cc(Cl)ccc3o2)C1 (stereo not drawn)	90.7	10.1	3.1	
CN(C(=O)CCSc1nc2cc(Cl)ccc2o1)C1CCS(=O)(=O)CC1	0.7	< 0.4	7.7	MIC [4]: 40 µM; solubility kinetic at 1 h [5]: > 328 µM; Papp at 4 h [6]: 44 ×10⁻⁶ cm/s; IC50 (HepG2): > 100 µM; solubility at 4 h [7]: 178 µg/mL (≈ 442 µM)
O=C(CCSc1nc2c(Cl)cccc2o1)N1CCCC1	97.9	15.8	24.3	
O=C(CCSc1nc2cc(Cl)ccc2o1)NC1CCCC1		11.3	> 50	
CN(C(=O)CCSc1nc2cc(F)ccc2o1)C1CCS(=O)(=O)CC1	0.6	< 0.4	> 50	
Clc1ccc2oc(SCCCN3CCCC3)nc2c1	10.4	1.9	42.6	
O=C(CCSc1nc2cc(Cl)ccc2o1)N1CCOCC1	36.5	2.2	11.4	
O=C(CCSc1nc2ccncc2o1)N1CCCC1	5.7	0.9	> 50	
O=C(CCSc1nc2cc(F)c(F)cc2o1)N1CCCC1	45.9	6.5	1.3	
O=C(CCSc1nc2ccc(Cl)cc2o1)N1CCCC1	109.4	6.6	1.6	
O=C(CCSc1nc2cc(Cl)ccc2[nH]1)N1CCCC1	56.8	9.2	> 50	
CN1CCN(C(=O)CCSc2nc3cc(Cl)ccc3o2)CC1	41.5	1.5	17.2	
CCN(CC)C(=O)CCSc1nc2cc(Cl)ccc2o1	107.5	5.9	3.9	
O=C(CCSc1nc2cc(F)ccc2o1)N1CCCC1	115.2	5.2	1.6	
Cc1nc(SCCC(=O)N2CCCC2)oc1C	3.9	< 0.4	> 50	
CSc1nc2cc(Cl)ccc2o1	> 46.1	19	> 50	
Cc1ccc2oc(SCCC(=O)N3CCCC3)nc2c1		9.3	8.4	
O=C(CCSc1nc2cc(F)ccc2o1)N1CCS(=O)(=O)CC1	1.5	0.4	> 50	
COc1ccc2oc(SCCC(=O)N3CCCC3)nc2c1	197.8	6.1	4	
CC1CCCN1C(=O)CCSc1nc2cc(Cl)ccc2o1 (racemic)	98	8.5	25.5	
CS(=O)(=O)C1CCN(C(=O)CCSc2nc3cc(Cl)ccc3o2)C1 (racemic)	2.1	< 0.4	> 50	
O=C(CCSc1nc2cc(Cl)ccc2o1)N1CCC1	17.9	3.7	> 50	
O=C(CCCc1nc2cc(Cl)ccc2o1)N1CCCC1	115.2	1.4	> 50	

SMILES	CLH [1] [mL/min/g]	CLH [2] [mL/min/g]	IC90 [3] [µM]	other results
O=S1(=O)CCCN1CCCSc1nc2cc(Cl)ccc2o1	115.2	4.7	7.7	
O=C(CCSc1nc2cnccc2o1)N1CCCC1	3.1	0.6	35.1	
O=C(CCSc1nc2ncccc2o1)N1CCCC1	18.6	0.7	> 50	
O=C(CCSc1nc2cc(Cl)ccc2o1)N1CCS(=O)(=O)C1	8.9	1.7	> 50	
O=C1CCCN1CCCSc1nc2cc(Cl)ccc2o1	51	4.8	6.5	
CN(CCC(=O)N1CCCC1)c1nc2cc(Cl)ccc2o1		1.9	> 50	
O=C(CCSc1nc2cc(Cl)ccc2s1)N1CCCC1	67	15	15.6	
O=C(CSCc1nc2cc(Cl)ccc2o1)N1CCCC1	71.8	1.5	> 50	
CCNC(=O)CCSc1nc2cc(Cl)ccc2o1			> 50	
O=C(CCSc1nc2cc(Cl)ccc2o1)N1CCCC1	131 to 132	5.8	2.8	MIC [4]: 10 µM; solubility kinetic at 1 h [5]: > 362 µM; Papp at 4 h [6]: 78 ×10⁻⁶ cm/s; Stability [8]: Stable; IC50 (Cytochrome P450 3A4 [9]): > 39.8 µM; IC50 (HepG2): > 100 µM; Activity [10]: inactive; MIC [11]: 10 µM; Activity (Hepatocyte): Non-Toxic; IC50 (THP-1): > 50 µM; IC50 (Cytochrome P450 3A4 [12]): > 39.8 µM; solubility at 4 h [7]: 8 µg/mL (≈ 25.7 µM)
O=C(CCSc1nc2cc(Cl)ccc2o1)N1CCCCC1	127.7	10.7	2.5	
O=C(CSc1nc2cc(Cl)ccc2o1)N1CCCC1	153.6	1.6	36	
O=C(CCSc1nc2cccc(Cl)c2o1)N1CCCC1	121.9	13.5	2.7	
O=C(CCSc1nc2ccccc2o1)N1CCCC1	161.2	5.1	4.4	
O=C(CCSc1nc2cc(Cl)ccc2o1)N1CCC(F)(F)C1	83.6	11.3	1.1	
CN(C(=O)CCSc1nc2cc(Cl)ccc2o1)C1CCS(=O)(=O)C1 (stereo not drawn)	0.8	1.5	25.4	
O=C(CCSc1ncc(-c2ccccc2)o1)N1CCCC1	176.6	11	> 50	
CS(=O)(=O)C1CCN(C(=O)CCSc2nc3cc(Cl)ccc3o2)CC1	2.6	0.5	> 50	
CN(C)C(=O)CCSc1nc2cc(Cl)ccc2o1	41.8	2.7	30	
CS(=O)(=O)N1CCN(C(=O)CCSc2nc3cc(Cl)ccc3o2)CC1	1.4	0.6	20.4	
CC(CC(=O)N1CCCC1)Sc1nc2cc(Cl)ccc2o1 (stereo not drawn)	165.1	8.6	4	
O=C(CCSc1nc(-c2ccccc2)co1)N1CCCC1		20.9	> 50	
O=C(CCSc1nc2cc(N3CCOCC3)ccc2o1)N1CCCC1	18.7	1.1	27.2	
O=C(CCNc1nc2cc(Cl)ccc2o1)N1CCCC1	81.1	2.3	> 50	
